{"source": "patent US9347077B2", "about": "“Over-expression of a putative oxidoreductase (UcpA) for increasing furfural or 5-hydroxymethylfurfural tolerance” (UNIVERSITY OF FLORIDA RESEARCH FOUNDATION, INCORPORATED, priority 2011, dated 2016)", "assay_type_in_all_cases": "cell-based, Escherichia coli", "key": {"[1]": {"system": "XW137 (E. coli W ucpA::kan)", "test": "pH-controlled batch fermentation (10% xylose)"}, "E. coli W": {"system": "E. coli W", "test": "pH-controlled batch fermentation (10% xylose)"}, "LY180(pTrc99A)": {"system": "LY180(pTrc99A)", "test": "Furfural toxicity / MIC in tube cultures, vector control", "conditions": "Escherichia coli, 48 h, read-out: MIC of furfural", "protocol": "(§1) Furfural toxicity was measured in tube cultures (13 mm by 100 mm) containing 4 ml of AM1 medium with 50 g liter^−1 xylose, 12.5 mg liter^−1 ampicillin, furfural, and other supplements as indicated (Miller et al., 2009a, b). Cultures were inoculated to an initial density of 22 mg dcw liter^−1. IPTG (0.1 mM) was included for fucO induction. Cell mass was measured at 550 nm after incubation for 48 h (37° C.). For cysteine supplement experiment, the culture condition was the same but included 0.1 mM cysteine as an amendment.\n(§2) Derivatives of LY180 containing these plasmids were tested for furfural tolerance with (0.1 mM IPTG) and without IPTG induction using an MIC assay (Miller et al., 2009a; Miller et al., 2010; Wang et al., 2011b)."}, "LY180": {"system": "LY180", "test": "pH-controlled batch fermentation (10% xylose)"}, "E. coli W/pTrc99A": {"system": "E. coli W/pTrc99A", "test": "pH-controlled batch fermentation (10% xylose)", "conditions": "10 mM furfural"}, "E. coli W/pLOI4856": {"system": "E. coli W/pLOI4856", "test": "pH-controlled batch fermentation (10% xylose)", "conditions": "10 mM furfural"}, "LY180 (pLOI4856) [2]": {"system": "LY180 (pLOI4856)", "test": "In vivo (whole cell) furfural reduction", "conditions": "plasmid copies of ucpA; similar to the vector control", "protocol": "In vivo furfural reduction was measured during incubation in AM1 medium containing 10 mM furfural and 50 g liter^−1 xylose. Cells were pre-incubated with chloramphenicol (40 mg liter^−1) for 1 h to arrest growth (0.88 mg dcw cells ml^−1), prior to the addition of furfural. Furfural concentration was measured as previously described using a Beckman spectrophotometer DU800 (Martinez et al., 2000b)."}, "[3]": {"system": "oxidoreductase gene mRNA in LY180", "test": "Comparison of mRNA levels before and after furfural addition (expression array)", "conditions": "1.5 g/L furfural addition in LY180", "protocol": "Analysis of mRNA as a measure of gene expression was performed as previously described (Miller et al., 2009a). Cultures were grown using 4 separate 500-ml fermentation vessels per strain. Initial samples (control) were removed for RNA extraction when the culture density reached approximately 0.66 g dry cell weight (dcw) liter^−1 (1.5 OD 550 nm). Furfural (15 mM) was then added and incubation continued. After 15 min incubation with furfural, cells were harvested for RNA extraction. RNA was submitted to NimbleGen for analysis of global expression. Expression data was further analyzed using ArrayStar and Excel.\nUcpA was discovered accidentally as a beneficial gene for furfural tolerance during a search for E. coli NADH-utilizing oxidoreductase genes that could reduce furfural and confer resistance. […] We began by comparing expression levels of all E. coli genes in the absence of furfural and in the presence of 15 mM furfural (Table 1). […] These were further sorted to identify 5 candidate oxidoreductases that are known or putative users of NADH and have a 3-fold or higher expression level in the presence of 15 mM furfural. One of the genes was fucO, a gene previously discovered to reduce furfural using NADH and to increase furfural tolerance in E. coli. Four new candidates were identified. Two were operons encoding subunits (xdhABC and YeiTA) and two were monocistronic (ucpA and aldA). These 4 candidates are shown in bold type in Table 2."}, "LY180 (pLOI4856) [4]": {"system": "LY180 (pLOI4856)", "test": "Furfural toxicity / MIC in tube cultures, ucpA plasmid", "conditions": "Escherichia coli, 48 h, read-out: MIC of furfural", "protocol": "as §1, §2"}}, "data": [{"molecule": "O=Cc1ccco1", "note": "[furfural]", "values": [{"measurement": "Cell Yield", "setting": "[1]; 8 mM furfural", "value": "1.9 ± 0.1", "unit": "g/L"}, {"measurement": "Furfural-dependent slow growth Duration", "setting": "[1]; 8 mM furfural", "value": "16 ± 3", "unit": "h"}, {"measurement": "Furfural-dependent slow growth μ", "setting": "[1]; 8 mM furfural", "value": "0.11 ± 0.02", "unit": "h⁻¹"}, {"measurement": "Cell Yield", "setting": "[1]; 10 mM furfural", "value": "1.9 ± 0.1", "unit": "g/L"}, {"measurement": "Furfural-dependent slow growth Duration", "setting": "[1]; 10 mM furfural", "value": "37 ± 2", "unit": "h"}, {"measurement": "Furfural-dependent slow growth μ", "setting": "[1]; 10 mM furfural", "value": "0.02 ± 0.01", "unit": "h⁻¹"}, {"measurement": "μ Max", "setting": "[1]; 10 mM furfural", "value": "0.12 ± 0.02", "unit": "h⁻¹"}, {"measurement": "Cell Yield", "setting": "E. coli W; 8 mM furfural", "value": "1.9 ± 0.1", "unit": "g/L"}, {"measurement": "Furfural-dependent slow growth Duration", "setting": "E. coli W; 8 mM furfural", "value": "13 ± 1", "unit": "h"}, {"measurement": "Furfural-dependent slow growth μ", "setting": "E. coli W; 8 mM furfural", "value": "0.18 ± 0.01", "unit": "h⁻¹"}, {"measurement": "μ Max", "setting": "E. coli W; 8 mM furfural", "value": "0.19 ± 0.01", "unit": "h⁻¹"}, {"measurement": "Cell Yield", "setting": "E. coli W; 10 mM furfural", "value": "2.0 ± 0.1", "unit": "g/L"}, {"measurement": "Furfural-dependent slow growth Duration", "setting": "E. coli W; 10 mM furfural", "value": "21 ± 1", "unit": "h"}, {"measurement": "Furfural-dependent slow growth μ", "setting": "E. coli W; 10 mM furfural", "value": "0.06 ± 0.02", "unit": "h⁻¹"}, {"measurement": "μ Max", "setting": "E. coli W; 10 mM furfural", "value": "0.20 ± 0.02", "unit": "h⁻¹"}, {"measurement": "MIC", "setting": "LY180(pTrc99A)", "value": 10, "unit": "mM"}, {"measurement": "Cell Yield", "setting": "LY180; 8 mM furfural", "value": "4.0 ± 0.1", "unit": "g/L"}, {"measurement": "Furfural-dependent slow growth μ", "setting": "LY180; 8 mM furfural", "value": "0.09 ± 0.01", "unit": "h⁻¹"}, {"measurement": "μ Max", "setting": "LY180; 8 mM furfural", "value": "0.16 ± 0.01", "unit": "h⁻¹"}, {"measurement": "Cell Yield", "setting": "LY180; 10 mM furfural", "value": "0.08 ± 0.02", "unit": "g/L"}, {"measurement": "Furfural-dependent slow growth Duration", "setting": "LY180; 10 mM furfural", "value": ">72", "unit": "h"}, {"measurement": "Furfural-dependent slow growth μ", "setting": "LY180; 10 mM furfural", "value": "<0.04", "unit": "h⁻¹"}, {"measurement": "μ Max", "setting": "LY180; 10 mM furfural", "value": "<0.04", "unit": "h⁻¹"}, {"measurement": "Cell Yield", "setting": "E. coli W/pTrc99A", "value": "2.0 ± 0.3", "unit": "g/L"}, {"measurement": "Furfural-dependent slow growth Duration", "setting": "E. coli W/pTrc99A", "value": "26 ± 4", "unit": "h"}, {"measurement": "Furfural-dependent slow growth μ", "setting": "E. coli W/pTrc99A", "value": "0.03 ± 0.01", "unit": "h⁻¹"}, {"measurement": "μ Max", "setting": "E. coli W/pTrc99A", "value": "0.13 ± 0.01", "unit": "h⁻¹"}, {"measurement": "Cell Yield", "setting": "E. coli W/pLOI4856", "value": "2.5 ± 0.3", "unit": "g/L"}, {"measurement": "Furfural-dependent slow growth Duration", "setting": "E. coli W/pLOI4856", "value": "16 ± 2", "unit": "h"}, {"measurement": "Furfural-dependent slow growth μ", "setting": "E. coli W/pLOI4856", "value": "0.07 ± 0.01", "unit": "h⁻¹"}, {"measurement": "μ Max", "setting": "E. coli W/pLOI4856", "value": "0.18 ± 0.02", "unit": "h⁻¹"}, {"measurement": "Whole-cell specific activity (furfural reductase)", "setting": "LY180 (pLOI4856) [2]", "value": "< 0.10", "unit": "U mg dcw^−1"}, {"measurement": "Fold increase of mRNA, yagQ", "setting": "[3]; b0283-b0286 yagQRST, 1st value", "value": 2.2, "unit": "fold"}, {"measurement": "Fold increase of mRNA, yagR", "setting": "[3]; b0283-b0286 yagQRST, 2nd value", "value": 2.3, "unit": "fold"}, {"measurement": "Fold increase of mRNA, yagS", "setting": "[3]; b0283-b0286 yagQRST, 3rd value", "value": 4.7, "unit": "fold"}, {"measurement": "Fold increase of mRNA, yagT", "setting": "[3]; b0283-b0286 yagQRST, 4th value", "value": 3.5, "unit": "fold"}, {"measurement": "Fold increase of mRNA, ykgE", "setting": "[3]; b0306", "value": 2.0, "unit": "fold"}, {"measurement": "Fold increase of mRNA, frmB", "setting": "[3]; b0355-b0356 frmBA, 1st value", "value": 4.4, "unit": "fold"}, {"measurement": "Fold increase of mRNA, frmA", "setting": "[3]; b0355-b0356 frmBA, 2nd value", "value": 5.7, "unit": "fold"}, {"measurement": "Fold increase of mRNA, yajO", "setting": "[3]; b0419", "value": 2.6, "unit": "fold"}, {"measurement": "Fold increase of mRNA, ybdH", "setting": "[3]; b0599", "value": 3.0, "unit": "fold"}, {"measurement": "Fold increase of mRNA, sdhA", "setting": "[3]; b0723-b0724 sdhAB, 1st value", "value": 5.3, "unit": "fold"}, {"measurement": "Fold increase of mRNA, sdhB", "setting": "[3]; b0723-b0724 sdhAB, 2nd value", "value": 5.8, "unit": "fold"}, {"measurement": "Fold increase of mRNA, ybiC", "setting": "[3]; b0801", "value": 2.2, "unit": "fold"}, {"measurement": "Fold increase of mRNA, wrbA", "setting": "[3]; b1004", "value": 3.0, "unit": "fold"}, {"measurement": "Fold increase of mRNA, yciW", "setting": "[3]; b1287", "value": 2.4, "unit": "fold"}, {"measurement": "Fold increase of mRNA, ydbC", "setting": "[3]; b1406", "value": 2.9, "unit": "fold"}, {"measurement": "Fold increase of mRNA, aldA", "setting": "[3]; b1415", "value": 4.2, "unit": "fold"}, {"measurement": "Fold increase of mRNA, ydcW", "setting": "[3]; b1444", "value": 2.5, "unit": "fold"}, {"measurement": "Fold increase of mRNA, yncB", "setting": "[3]; b1449", "value": 2.6, "unit": "fold"}, {"measurement": "Fold increase of mRNA, nemA", "setting": "[3]; b1650", "value": 6.4, "unit": "fold"}, {"measurement": "Fold increase of mRNA, yobF", "setting": "[3]; b2137", "value": 8.5, "unit": "fold"}, {"measurement": "Fold increase of mRNA, yeiT", "setting": "[3]; b2146-b2147 yeiTA, 1st value", "value": 3.1, "unit": "fold"}, {"measurement": "Fold increase of mRNA, yeiA", "setting": "[3]; b2146-b2147 yeiTA, 2nd value", "value": 3.0, "unit": "fold"}, {"measurement": "Fold increase of mRNA, yeiQ", "setting": "[3]; b2172", "value": 2.3, "unit": "fold"}, {"measurement": "Fold increase of mRNA, ucpA", "setting": "[3]; b2426", "value": 4.5, "unit": "fold"}, {"measurement": "Fold increase of mRNA, yphC", "setting": "[3]; b2545", "value": 2.3, "unit": "fold"}, {"measurement": "Fold increase of mRNA, fucO", "setting": "[3]; b2799", "value": 4.4, "unit": "fold"}, {"measurement": "Fold increase of mRNA, xdhABC", "setting": "[3]; b2868", "value": 5.8, "unit": "fold"}, {"measurement": "Fold increase of mRNA, ygfS", "setting": "[3]; b2886", "value": 2.1, "unit": "fold"}, {"measurement": "Fold increase of mRNA, yqfA", "setting": "[3]; b2899", "value": 2.2, "unit": "fold"}, {"measurement": "Fold increase of mRNA, yghZ", "setting": "[3]; b3001", "value": 2.0, "unit": "fold"}, {"measurement": "Fold increase of mRNA, yqhD", "setting": "[3]; b3011", "value": 4.6, "unit": "fold"}, {"measurement": "Fold increase of mRNA, dkgA", "setting": "[3]; b3012", "value": 5.4, "unit": "fold"}, {"measurement": "Fold increase of mRNA, yiaK", "setting": "[3]; b3572", "value": 2.4, "unit": "fold"}, {"measurement": "Fold increase of mRNA, aldB", "setting": "[3]; b3588", "value": 5.7, "unit": "fold"}, {"measurement": "MIC", "setting": "LY180 (pLOI4856) [4]", "value": 15, "unit": "mM"}]}]}
